Experimental findings from patent US4623645A, “Substituted cephalosporin sulfoxides as anti-inflammatory and antidegenerative agents” (Merck & Co., Inc., priority 1983, dated 1986) are described below.

The target in this assay is T1, Human Polymorphonuclear Leukocyte Elastase (Homo sapiens, UniProt P08246).
T1 sequence (P08246 30-247 limits assumed): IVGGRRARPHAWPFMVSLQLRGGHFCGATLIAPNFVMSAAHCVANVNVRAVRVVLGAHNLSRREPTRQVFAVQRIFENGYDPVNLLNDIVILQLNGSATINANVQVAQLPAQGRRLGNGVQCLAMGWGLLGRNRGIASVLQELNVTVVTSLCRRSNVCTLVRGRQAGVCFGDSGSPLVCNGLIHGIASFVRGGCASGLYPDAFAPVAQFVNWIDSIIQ
Kind of assay: Inhibition of human polymorphonuclear leukocyte elastase via hydrolysis of N-t-Boc-alanyl-alanyl-prolyl-alanine-p-nitroanilide (Boc-AAPAN). It counts as biochemical. As to conditions: 50% inhibition of the enzyme activity 2 minutes after zero time; crude human PMN extract, 0.2 mM Boc-AAPAN, pH 7.5; read-out: ED50 (the source's name) (converted).
For the compound `CC(=O)OCC1=C(C(=O)OC(C)(C)C)N2C(=O)C(Cl)(Cl)C2[S+]([O-])C1` (stereo not shown) [7,7-dichloro / OtBu / H], the IC50 is 5.02 µM.

`CC(=O)OCC1=C(C(=O)OC(C)(C)C)N2C(=O)[C@H](F)[C@H]2[S+]([O-])C1` (stereo partly drawn) [F / OtBu / H, t-Butyl 3-acetyloxymethyl-7α-fluoro-8-oxo-5-thia-1-azabicyclo[4.2.0]oct-2-ene-2-carboxylate-5-oxide]: the IC50 is 5.76 µM.

As to `CO[C@H]1C(=O)N2C(C(=O)OCc3ccccc3)=C(COC(C)=O)C[S+]([O-])[C@H]12` (stereo partly drawn) [OCH3 / OCH2 .phi. / H, Benzyl 3-acetyloxymethyl-7α-methoxy-8-oxo-5-thia-1-azabicyclo[4.2.0]oct-2-ene-2-carboxylate-5-oxide], the IC50 is 7.63 µM.

Regarding `COC(=O)C1=C(COC(C)=O)C[S+]([O-])C2C(OC)C(=O)N12` (stereo not shown) [OCH3 / OCH3 / H], the IC50 is 25.2 µM.
